For data set [1], the target named is T1, TRPV1 expressed in rat spinal cord (Rattus norvegicus, UniProt O35433).
T1 construct: TRPV1 expressed in rat spinal cord; from tissue; host or cells: rat (Sprague-Dawley) spinal cord membranes
In words: Radioligand binding assay, [3H]-RTX, rat spinal cord membranes. As for the experimental part:
Radioligand Binding Assay
Male Sprague-Dawley rats with body weight between 250 to 350 g at the time for testing were used. For binding assays rats were sacrificed by decapitation under anesthesia and the spinal cord was removed and disrupted using a Polytron tissue homogenizer in ice cold buffer containing 5 mM KCl, 5.8 mM NaCl, 0.75 mM CaCl2, 2 mM MgCl2, 320 mM sucrose, 10 mM Hepes, pH 8.6.^5 The homogenized tissue was centrifuged at 1000×g for 10 min at 4° C. and the supernatant was centrifuged again at 35000×g for 30 min at 4° C. (Beckman Avanti J25). The pellet was resuspended in the same buffer as described above and used in binding experiments. In saturation experiments, 150 μg protein/sample from membrane suspensions were incubated with [^3H]-Resiniferatoxin ([^3H]-RTX) (0.003-3 nM) in the assay buffer containing 0.25 mg/ml fatty acid-free bovine serum albumin at 37° C. for 60 min. […]
Non specific binding was evaluated in the presence of 1 μM RTX. […] The tip of the microcentrifuge tube containing the pellet was cut off and the radioactivity was determined by scintillation counting (Packard 2500 TR). Protein concentration was determined according to a Bio-Rad method with bovine serum albumin as a standard reference (Bradford, 1976). Saturation and competition studies were analyzed with the Ligand program.^6

The target in data set [2] is T2, TRPV1 expressing dorsal root ganglia neurons (Rattus norvegicus, UniProt O35433).
T2 construct: Dorsal root ganglia were removed and placed in cold phosphate buffered solution; endogenous in cells; host or cells: primary cultured rat dorsal root ganglia neurons
Briefly: Ca2+ fluorescence measurements in cultured rat dorsal root ganglia neurones. The data set is classed as cell-based. Conditions: 0.1 μM capsaicin, mean and 95% fiducial limits, read-out: IC50 for inhibition of capsaicin-evoked [Ca2+]i mobilization. Here is the method:
Ca^2+ Fluorescence Measurements in Cultured Rat Dorsal Root Ganglia Neurones
Adults rats were terminally anaesthetized and decapitated. Dorsal root ganglia were removed and placed in cold phosphate buffered solution (PBS) before being transferred to collagenase (10 mg/ml), trypsin (5 mg/ml) and DNAse (1 mg/ml) for 35 min at 37° C. The ganglia, placed in cold DMEM supplemented with 10% fetal bovine serum, 2 mM L-glutamine, 100 U/ml penicillin and 100 μg/ml streptomycin, were dissociated in single cells by several passages through a series of syringe needles (23 G down to 25 G). The medium and the ganglia were filtered to remove debris, topped up with 8 ml of DMEM medium and centrifuged (200×g for 5 min). The final cell pellet was re-suspended in DMEM medium [supplemented with 100 ng/ml mouse Nerve Growth Factor (mouse-NGF-7S) and cytosine-β-D-arabinofuranoside free base (ARA-C) 2.5 μM]. […] Fura-2-AM-ester was excited at […] to indicate relative [Ca^2+]i changes by the F340/F380 ratio recorded with a dynamic image analysis system (Laboratory Automation 2.0, RCS, Florence, Italy) and the cells were allowed (at least 10 min) to attain a stable fluorescence before beginning the experiment. […]

For data set [3], the system named is capsaicin-induced tactile allodynia. Briefly: Capsaicin-induced secondary allodynia in rat. The conditions noted are these: 30 μmol/kg oral 2 hours prior to capsaicin (20 nmols/50 μl/paw), evaluated 90 min after challenge. The class given is in vivo. Here is the method: Capsaicin-Induced Secondary Allodynia in Rat
Capsaicin (20 nmols/50 μl/paw) was injected in the plantar surface of the glabrous skin of the right paw of rats anesthetized with diethyl ether (Chaplan et al., 1994). Compound V394 was orally administrated (30 μmol/kg) 2 hours prior to capsaicin injection. Tactile allodynia was evaluated 90 min after capsaicin challenge.

pIC50, pKd, pKi: −log10 of the molar value.

T1 sequence (O35433 whole entry): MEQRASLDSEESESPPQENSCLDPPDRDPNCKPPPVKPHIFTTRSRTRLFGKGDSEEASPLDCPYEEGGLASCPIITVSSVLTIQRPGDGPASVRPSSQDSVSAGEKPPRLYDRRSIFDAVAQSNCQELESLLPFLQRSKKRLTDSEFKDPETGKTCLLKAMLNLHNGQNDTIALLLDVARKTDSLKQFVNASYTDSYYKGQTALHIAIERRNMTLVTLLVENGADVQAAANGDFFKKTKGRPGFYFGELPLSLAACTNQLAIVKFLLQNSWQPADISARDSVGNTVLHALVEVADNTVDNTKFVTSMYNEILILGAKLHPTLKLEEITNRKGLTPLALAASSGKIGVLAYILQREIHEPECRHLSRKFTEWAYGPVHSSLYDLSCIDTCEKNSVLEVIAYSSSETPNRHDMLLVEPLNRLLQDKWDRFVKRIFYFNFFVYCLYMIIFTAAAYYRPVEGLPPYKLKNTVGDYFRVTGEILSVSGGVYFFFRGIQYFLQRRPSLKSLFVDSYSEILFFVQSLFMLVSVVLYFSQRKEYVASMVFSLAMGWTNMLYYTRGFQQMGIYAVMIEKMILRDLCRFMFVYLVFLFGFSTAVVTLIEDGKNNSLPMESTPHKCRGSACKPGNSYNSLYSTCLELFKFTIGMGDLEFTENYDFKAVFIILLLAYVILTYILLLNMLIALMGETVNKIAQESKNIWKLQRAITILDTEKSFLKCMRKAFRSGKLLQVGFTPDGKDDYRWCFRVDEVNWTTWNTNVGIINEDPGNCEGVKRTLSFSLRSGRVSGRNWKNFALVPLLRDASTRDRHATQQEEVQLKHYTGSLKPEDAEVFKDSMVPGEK
T2 sequence (O35433 whole entry): as above

`O=C(Nc1ccc(Cl)cc1)c1ccc(-c2cccc3cnccc23)nc1` [V394, N-(4-chlorophenyl)-6-(isoquinolin-5-yl)pyridine-3-carboxamide] displayed a melting point of 258 °C. Moreover, in data set [1] ([3H]RTX 0.4 nM, 37° C. 60 min, 95% fiducial limits in brackets, read-out: Ki value, competition binding of [3H]-RTX), the pKi is 7.82. Also, the pIC50 in data set [2] is 9.08. Further, the “preventive effect against the pro-allodinic effect of capsaicin” value in data set [3] is 55%.
Consider `C=C(C)[C@]12C[C@@H](C)[C@@]34O[C@](Cc5ccccc5)(O[C@@H]1[C@@H]3C=C(COC(=O)Cc1ccc(O)c(OC)c1)C[C@]1(O)C(=O)C(C)=C[C@@H]41)O2` [[^3H]-RTX, [^3H]-Resiniferatoxin, reference compound], for which the pKd in data set [1] (saturation experiments, [3H]-RTX 0.003-3 nM, read-out: KD value, saturation curve of [3H]-RTX) is 9.68.

As a reminder, the pKi is the Ki on a negative log10 scale, so that one unit is a factor of ten. As a reminder, the pIC50 is the IC50 on a negative log10 scale, so that one unit is a factor of ten. Usually melting point stands for the temperature, or range, at which the solid turns liquid.

For the origin of these results see patent US8222275B2, “Biarylcarboxyarylamides as vanilloid-1 receptor modulators” (Pharmeste S.R.L., priority 2006, dated 2012).
